Experimental data published in patent US11883458B2, “Herb medicine composition for alleviating or treating asthma, and oriental pharmacopuncture solution containing same and injection containing same” (priority 2019, dated 2024).

Test system: asthma-induced BALB/c mice (ovalbumin)
Experiment: Ovalbumin-induced asthma in BALB/c mice: white blood cell, eosinophil and IgE measurement
Format: in vivo
Conditions: asthma-induced female BALB/c mice; injected twice a week for 4 weeks; mean of 3 mice; mouse blood
Method: Ovalbumin was administered to BALB/c mice to induce asthma. The total white blood cell (WBC) count, eosinophil count, and […] in bronchoalveolar lavage fluid (BALF) were measured.
As experimental animals, BALB/c mice (supplier: Samtako Korea), which have been widely used in asthma tests, were used. Female BALB/c mice were used and were 6 weeks old at the time of acquisition and 7 weeks old at the time of the experiment. After acquisition, the mice were acclimatized in an animal test room for 6 days, and observed at least once a day. During the acclimatization period, the mice were distinguished by skin mark using a red oil magic pen. During the administration and observation period, the mice were distinguished by skin mark using a black oil magic pen. An individual identification card was attached to a breeding cage. The mice were housed in a breeding area under the condition of a temperature of 23±3° C., a relative humidity of 55±15%, a ventilation frequency of 10 to 20 times/hr, an illumination time of 12 hours, and an illuminance of 150 to 300 Lux. During the period of acclimatization and administration, at least four mice were housed in each polycarbonate breeding cage containing an appropriate amount of rug. During the acclimatization period, mice determined to be healthy were weighed and ranked according to weight. The mice were distributed into groups so that the mean weights of each group were equal.
As an asthma inducer, refrigerated ovalbumin (OVA) (catalog No.: A5503, supplier: Sigma Aldrich, Louis, Missouri, USA) was used. As an adjuvant, refrigerated aluminum hydroxide (Alum) (catalog No.: 77161, supplier: Thermo Fisher Scientific Inc, Waltham, Massachussets, USA) was used. […]
After 4 weeks, the measurement of the white blood cell (WBC) count, eosinophil count, and IgE was performed using mouse blood. The mean values thereof were calculated, and the results are illustrated in Table 3 below.

C[C@@H]1C[C@H]2[C@@H]3CCC4=CC(=O)C=C[C@]4(C)[C@@]3(F)[C@@H](O)C[C@]2(C)[C@@]1(O)C(=O)CO [Positive control, dexamethasone]
Eosinophil count: 1.41 X10^2 cells/μl | IgE: 23.45 µg/mL | WBC count: 39.83 X10^3 cells/μl
